The values below come from patent US8790889B2, “Neuronal stimulation” (The University of Queensland, priority 2009, dated 2014).

Test [1] concerns adult hippocampal precursors. Briefly: Adult hippocampal neurosphere culture. It counts as cell-based, mouse. To be noted: for effect of antagonist on norepinephrine-stimulated increase in neurosphere numbers: in presence of norepinephrine, prazosin 100 nM, propranolol 1 μM, CGP20712 10 nM, SR59230A 10 nM; for effect of antagonist on norepinephrine-stimulated increase in neurosphere numbers / increase in neurosphere numbers compared to the control: yohimbine 1 μM, ICI118,551 10 nM; for neurosphere numbers with antagonist alone / increase in neurosphere numbers compared to the control: no norepinephrine, antagonist alone. On the procedure: Animals were treated in accordance with the Australian Code of Practice for the Care and Use of Animals for Scientific Purposes and ethics approval was obtained for all experiments from the Animal Ethics Committee of the University of Queensland. 8-10 week old male C57/B16 mice were killed by cervical dislocation and their brains removed. Brains were bisected along the midline in the sagittal plane. The hippocampi were isolated from the overlying cortex and minced using a scalpel blade. Minced tissue was digested in 0.1% papain (Invitrogen, Melbourne, Australia) for 20 minutes at 37° C., after which an excess of NeuroCult NSC basal medium (Stem Cell Technologies, Vancouver, Canada) was added to halt the digestion. Tissue was then centrifuged at 100 rcf for 5 minutes, the resulting pellet was resuspended in 1 ml of complete neurosphere medium, and a single cell suspension was achieved by gentle trituration. The cells were filtered through a 40 μm cell sieve (BD Biosciences, Sydney, Australia) and resuspended in NeuroCult NSC basal medium containing NeuroCult proliferation supplements (Stem Cell Technologies), 2% bovine serum albumin (Invitrogen) and 2 μg/ml heparin (Sigma-Aldrich, Sydney, Australia). The growth factors added were 20 ng/ml EGF (receptor grade, BD Biosciences) and 10 ng/ml bFGF (recombinant bovine, Roche, Basel, Switzerland). The cells were then plated in a 96-well plate and cultured in complete neurosphere medium containing EGF and bFGF, in the presence or absence of 5-hydroxytryptamine hydrochloride (serotonin; 100 nM, 1 μM, 10 μM), L-(−)-noradrenaline (+)-bitartrate salt monohydrate (norepinephrine; 100 nM, 1 μM, 10 μM) or KCl (15 mM). The adrenergic receptor antagonists used were prazosin (100 nM), yohimbine (1 μM), propranolol (1 μM), CGP20712 (10 nM), ICI118,551 (10 nM) and SR59230A (10 nM). BRL37344 was used as a selective β3 adrenergic receptor agonist. All the compounds were purchased from Sigma-Aldrich. The number of primary neurospheres was counted on day 10-13 and expressed as a percentage relative to the control.

Test [2] has as its system stem cells in the hippocampus. Briefly: i.p. treatment for 7 days, hippocampal neurospheres. The test is classed as in vivo, mouse. To be noted: 10 mg/kg i.p. for 7 days. On the procedure: (§1) Neurospheres with a diameter greater than […] may be derived from BRL37344 treated mice.
Test [3] has as its system hippocampal precursors. Briefly: Intrahippocampal infusion for 7 days, hippocampal neurospheres. The test is classed as in vivo, mouse. To be noted: 10 μM intrahippocampal infusion for 7 days. On the procedure: as §1
The test system of test [4] is hippocampal precursors. The test is described as follows: Slice-sphere assay (hippocampal organotypic slices, then neurosphere culture). It counts as cell-based, rat. To be noted: for neurosphere frequency: FIG. 8b, 1 μM; for effect on precursor numbers / frequency of neurosphere generation: 1 μM or 10 μM. On the procedure: D-glucose (Sigma-Aldrich) was added to the medium to a final concentration of 5 mM. Four filters, each containing 6-7 hippocampal slices, were generated from a single animal. Plates were incubated at 37° C. in a humidified 5% CO2 incubator and the slices were cultured for 6 days. To assess the influence of specific compounds on hippocampal precursor proliferation in the slice culture, compounds were added to the complete medium at the doses described below. Two filters were treated with the compounds for each dose per experiment. On every alternate day half the medium was removed and replaced with fresh medium containing the compounds. Slices were treated with serotonin at 10 μM and 100 μM and norepinephrine at 1 μM, 10 μM and 100 μM. […] Propranolol (10 μM) was used to block β adrenergic receptors in the slices. On the 6th day of culture, the hippocampal slices from each treatment group were pooled and the tissue was minced using a scalpel blade. Minced tissue was then treated with 0.1% trypsin-EDTA (Invitrogen) for 5 minutes at 37° C. […] A single cell suspension was achieved by gentle trituration. The total number of viable cells in an aliquot was counted on a haemocytometer based on the exclusion of 0.08% trypan blue (Sigma-Aldrich). The cells were then cultured in complete neurosphere medium containing EGF and bFGF. […] For each experiment there were 20 wells plated for each of the doses per treatment group. The plates were incubated at 37° C. in a humidified 5% CO2 incubator.

SMILES strings stand for the structures. Entries after “also recorded” stand apart in the source; their conditions may differ.

For `CC(Cc1ccc(OCC(=O)[O-])cc1)NCC(O)c1cccc(Cl)c1.[Na+]` (centres unmarked) [BRL37344], the “neurosphere numbers compared to norepinephrine treatment” value in test [1] (1 μM and 10 μM, comparison 10 μM norepinephrine) was “increase in neurosphere numbers similar to that observed in the presence of 10 μM norepinephrine”. In addition, the large neurospheres obtained entry in test [2] is “increase in, large neurospheres; also recorded: increase in large neurospheres”. For the same compound, in test [2] (8 weeks old C57/B16 mice, n=7), the “activation of stem cells in the hippocampus” value is “significant activation of stem cells in the hippocampus”. Moreover, in the test with hippocampal precursors [3], the “activation of hippocampal precursors” value is given as “activation of hippocampal precursors”, the “number of neurospheres with a diameter greater than 100 μM” value is “much greater” and the “total number of neurospheres derived from treated mice” value is “greater than when saline is infused”.
On to `Cn1cc(C(F)(F)F)nc1-c1ccc(OCC(O)CNCCOc2ccc(O)c(C(N)=O)c2)cc1` (centres unmarked) [CGP20712, 2-hydroxy-5-(2-[{2-hydroxy-3-(4-[1-methyl-4-trifluoromethyl-2-imidazolyl]phenoxy)-propyl}amino]ethoxy)benzamide], for which, in test [1], the “effect of antagonist on norepinephrine-stimulated increase in neurosphere numbers” value is on record as “no such effect”.
In the case of `Cc1ccc(OCC(O)C(C)NC(C)C)c2c1CCC2` (centres unmarked) [ICI118,551], in test [1], the “neurosphere numbers with antagonist alone” value is “significant increase” and the “increase in neurosphere numbers compared to the control” value is listed as “about 34%”.
In the case of `[Cl-].[K+]` [KCl], the “increase in neurosphere numbers” value in test [1] (KCl 15 mM alone) was found to be 2 fold.
For the compound `CCc1ccccc1OC[C@@H](O)CN[C@H]1CCCc2ccccc21.O=C(O)C(=O)O` [SR59230A, 3-(2-ethylphenoxy)-1([1s]-1,2,3,4-tetrahydronaphth-1-ylamino)-2S-propanol oxalate], in test [1], the “effect of antagonist on norepinephrine-stimulated increase in neurosphere numbers” value is on record as “completely blocked; also recorded: completely inhibited”.
Turning to `CNCC[C@@H](Oc1ccccc1C)c1ccccc1` [atomoxetine], the neurosphere frequency entry in the test with hippocampal precursors [4] is “significant increase”. Also, the “neurosphere frequency as percentage of the control” value (“neurosphere frequency as percentage” for short) in the test with hippocampal precursors [4] (slices treated at 1 μM) amounted to 147.0±15.0%.
On to `CN(C)CCCC1(c2ccc(F)cc2)OCc2cc(C#N)ccc21` (centres unmarked) [citalopram], for which the results for the “neurosphere frequency as percentage” value with hippocampal precursors [4] (slices treated at 10 μM) and with hippocampal precursors [4] (slices treated at 100 μM) were 113.8±9.9% and 103.8±3.8%, respectively.
On to `CNCCC(Oc1ccc(C(F)(F)F)cc1)c1ccccc1` (centres unmarked) [fluoxetine], for which the figures for the “effect on precursor numbers / frequency of neurosphere generation” value with hippocampal precursors [4] and in the test on hippocampal precursors [4] (listed as Fluoxetine) were “no significant change” and “no effect”, respectively.
As to `CNCCCC12CCC(c3ccccc31)c1ccccc12` [maprotiline], the neurosphere frequency result in the test with hippocampal precursors [4] is recorded as “significant increase”. The “neurosphere frequency as percentage” value in the test with hippocampal precursors [4] (slices treated at 1 μM) is given as 258.5±25.5%.
`COc1cc2nc(N3CCN(C(=O)c4ccco4)CC3)nc(N)c2cc1OC` [prazosin]: the “effect of antagonist on norepinephrine-stimulated increase in neurosphere numbers” value in test [1] was “failed to inhibit”.
With `CC(C)NCC(O)COc1cccc2ccccc12` (centres unmarked) [propranolol], the “effect on norepinephrine-mediated increase in precursor activity” value in the test with hippocampal precursors [4] (propranolol 10 μM in presence of norepinephrine) is recorded as “completely inhibit; also recorded: abolished”. In the test with hippocampal precursors [4] (propranolol 10 μM in presence of reboxetine), the “effect on reboxetine-mediated increase in precursor activity” value was “completely inhibit; also recorded: abolished”. Moreover, in test [1], the “neurosphere numbers with antagonist alone” value was “no toxic effect” and the “effect of antagonist on norepinephrine-stimulated increase in neurosphere numbers” value is recorded as “reduced the norepinephrine-mediated response back to control levels; also recorded: completely inhibited”.
`CCOc1ccccc1OC(c1ccccc1)C1CNCCO1` (centres unmarked) [reboxetine]: in the test with hippocampal precursors [4] (10 μM and 100 μM), the “frequency of neurosphere formation” value is “significantly enhanced”. For the same compound, the “neurosphere frequency as percentage” value in the test with hippocampal precursors [4] (slices treated at 1 μM) is on record as 104.5±9.6%; in the test on hippocampal precursors [4] (slices treated at 100 μM), 265.0±11.7%. Further, the “increase in frequency of neurosphere formation” value in the test on hippocampal precursors [4] (slices treated at 10 μM) was determined as 40%.
On to `Cl.NCCc1c[nH]c2ccc(O)cc12` [serotonin, 5-hydroxytryptamine hydrochloride], for which, in the test with hippocampal precursors [4] (10 μM or 100 μM), the “effect on frequency of neurosphere formation” value was “no effect”. Moreover, the entries for the “neurosphere frequency as percentage” value in the test on hippocampal precursors [4] (slices treated at 10 μM) and in the test with hippocampal precursors [4] (slices treated at 100 μM) were 90.07±5.4% and 102.81±31.7%, respectively. For the same compound, the “neurosphere numbers compared to the control” value in test [1] (100 nM, 1 μM or 10 μM, EGF and bFGF present) is reported as “no change”.
Take `COC(=O)[C@@H]1[C@H]2C[C@H]3c4[nH]c5ccccc5c4CCN3C[C@@H]2CC[C@@H]1O` [yohimbine]: in test [1], the “neurosphere numbers with antagonist alone” value is listed as “slight but significant increase”, the “increase in neurosphere numbers compared to the control” value amounted to 40% and the “effect of antagonist on norepinephrine-stimulated increase in neurosphere numbers” value is given as “failed to inhibit”.
